According to PMC7930822, “Phase I Trial to Evaluate the Tolerance, Pharmacokinetics and Efficacy of the Broad-Spectrum ErbB Family Inhibitor Larotinib Mesylate in Patients With Advanced Solid Tumors” (Frontiers in Pharmacology, 2021):
Counter-ions that a name gives are not always drawn. Like-named read-outs stand apart in the source and are kept apart here.

Experiment: phase I plasma pharmacokinetics (non-compartmental, LC-MS/MS)
Type: in vivo, human
Conditions: plasma, plasma; for Tmax / Vd/F / AUC(0-t) / AUC(0-inf) / Cmax / half-life / AUC: human; for Tmax / Vd/F / AUC(0-t) / AUC(0-inf) / Cmax / half-life: po; for AUC: read-out: AUCτ,ss, mean (min–max)
Protocol: This was a phase I, single-center, open-label, dose-escalation study conducted at First Hospital of Jilin University, China (registration no.: ChiCTR-OPC-15007153 registered at http://www.chictr.org.cn). Larotinib mesylate hard capsules were produced and supplied by Sunshine Lake Pharma Co., Ltd (Guangdong Province, China) in different unit doses of […] under GMP condition. Seven dose levels were designed in the study: 50, 100, 150, 220, 300, 350, and 400 mg with administration stages labeled cycle 0, cycle 1, and subsequent treatment cycles. Patients received an oral single dose of larotinib mesylate after fasting during a 6-days cycle 0 to evaluate the tolerance and pharmacokinetic characteristics. After cycle 0, larotinib mesylate was continuously administered once daily for 28 days in cycle 1, and the tolerance and pharmacokinetic characteristics of multiple doses were evaluated (Figure 2). The patients who […] disease control (complete response [CR], partial response [PR], or stable disease [SD]) at the end of cycle one were permitted to participate in the subsequent 28-days treatment cycles until progressive disease (PD) or intolerance was observed.
Blood samples (4 ml) for pharmacokinetic analyses were collected in tubes containing K2EDTA anticoagulant. Blood samples were centrifuged at 3,000 rpm for 10 min at 4°C and stored at –80°C until liquid chromatography-mass spectrophotometry (LC-MS/MS) analysis. Urine and fecal samples were collected only when patients were given the150-mg and 220-mg dose levels at sampling time intervals of 0–4, 4–8, 8–12, 12–24, 24–48, 48–72, 72–96 and 96–120 h in cycle 0.
Linear mixed effects model was used to explore the dose exposure relationships. Dose proportionality was concluded if the 95% confidence interval (CI) of the linear regression slope was completely contained within the decision interval (1 + ln (0.8)/ln (8)∼1 + ln (1.25)/ln (8)). For urine and fecal data, the accumulative excretion rates of larotinib and M5 were calculated.
Bioanalysis was performed at Frontage Company (Shanghai, China). Validated high-performance LC-MS/MS method was used to quantify the concentrations of larotinib and M5 in plasma, urine and feces samples. Protein precipitation was employed for plasma, urine and feces processing. Plasma larotinib and M5 concentrations were determined using appropriate calibration curves obtained from standards in the range of 0.5–1,000 ng/ml. The interassay precision of the analysis method were 4.2–5.4% for larotinib and 3.9–4.3% for M5. The interassay accuracy of the analysis method were 100.4–103.4% for larotinib and 102.2–102.9% for M5, respectively.
Statistical analyses were performed using SAS software, version 9.2 (SAS Institute Inc., United States). Descriptive statistics were used to summarize continuous variables as cases, means with standard deviations (SDs), medians, quartiles, maximums and minimums. For categorical variables, frequencies and percentages were used. A linear mixed effects model, relating log-transformed Cmax and AUC parameters to log-transformed dose, was used to investigate dose proportionality.

[1] = multiple oral administration, 50 mg larotinib mesylate, steady state
[2] = multiple oral administration, 100 mg larotinib mesylate, steady state
[3] = multiple oral administration, 150 mg larotinib mesylate, steady state
[4] = multiple oral administration, 220 mg larotinib mesylate, steady state
[5] = multiple oral administration, 300 mg larotinib mesylate, steady state
[6] = multiple oral administration, 350 mg larotinib mesylate, steady state
[7] = multiple oral administration, 400 mg larotinib mesylate, steady state

COc1cc2ncnc(Nc3ccc(F)c(Cl)c3)c2cc1OCCCN1C[C@@H]2OCCO[C@@H]2C1 [larotinib mesylate]
Tmax (300 mg, multiple oral administration, 300 mg larotinib mesylate, steady state, read-out: Tmax,ss, median (min–max)): 5 h | Vd/F (300 mg, multiple oral administration, 300 mg larotinib mesylate, steady state, read-out: Vz/F,ss, mean (min–max)): 1060 L | AUC(0-t) (300 mg, single oral administration, 300 mg larotinib mesylate, read-out: AUC0-24, mean (min–max)): 2690 ng·h/mL | AUC(0-t) (300 mg, single oral administration, 300 mg larotinib mesylate, read-out: AUC0-t, mean (min–max)): 4880 ng·h/mL | AUC(0-inf) (300 mg, single oral administration, 300 mg larotinib mesylate, read-out: AUC0-∞, mean (min–max)): 5550 ng·h/mL | Cmax (300 mg, single oral administration, 300 mg larotinib mesylate, read-out: Cmax, mean (min–max)): 267 ng/mL | half-life (300 mg, single oral administration, 300 mg larotinib mesylate, read-out: T1/2, mean (min–max) (converted)): 46.2 h | Tmax (300 mg, single oral administration, 300 mg larotinib mesylate, read-out: Tmax, median (min–max)): 5 h | Vd/F (300 mg, single oral administration, 300 mg larotinib mesylate, read-out: Vz/F, mean (min–max)): 4340 L | AUC(0-t) (350 mg, multiple oral administration, 350 mg larotinib mesylate, steady state, read-out: AUC0-t,ss, mean (min–max)): 35900 ng·h/mL | AUC(0-inf) (350 mg, multiple oral administration, 350 mg larotinib mesylate, steady state, read-out: AUC0-∞,ss, mean (min–max)): 47300 ng·h/mL | Cmax (350 mg, multiple oral administration, 350 mg larotinib mesylate, steady state, read-out: Cmax,ss, mean (min–max)): 695 ng/mL | half-life (350 mg, multiple oral administration, 350 mg larotinib mesylate, steady state, read-out: T1/2,ss, mean (min–max) (converted)): 58.6 h | Tmax (350 mg, multiple oral administration, 350 mg larotinib mesylate, steady state, read-out: Tmax,ss, median (min–max)): 5 h | Vd/F (350 mg, multiple oral administration, 350 mg larotinib mesylate, steady state, read-out: Vz/F,ss, mean (min–max)): 641 L | AUC(0-t) (350 mg, single oral administration, 350 mg larotinib mesylate, read-out: AUC0-24, mean (min–max)): 3240 ng·h/mL | AUC(0-t) (350 mg, single oral administration, 350 mg larotinib mesylate, read-out: AUC0-t, mean (min–max)): 6120 ng·h/mL | AUC(0-inf) (350 mg, single oral administration, 350 mg larotinib mesylate, read-out: AUC0-∞, mean (min–max)): 6830 ng·h/mL | Cmax (350 mg, single oral administration, 350 mg larotinib mesylate, read-out: Cmax, mean (min–max)): 300 ng/mL | half-life (350 mg, single oral administration, 350 mg larotinib mesylate, read-out: T1/2, mean (min–max) (converted)): 44.6 h | Tmax (350 mg, single oral administration, 350 mg larotinib mesylate, read-out: Tmax, median (min–max)): 3.5 h | Vd/F (350 mg, single oral administration, 350 mg larotinib mesylate, read-out: Vz/F, mean (min–max)): 3800 L | AUC(0-t) (400 mg, multiple oral administration, 400 mg larotinib mesylate, steady state, read-out: AUC0-t,ss, mean (min–max)): 45000 ng·h/mL | AUC(0-inf) (400 mg, multiple oral administration, 400 mg larotinib mesylate, steady state, read-out: AUC0-∞,ss, mean (min–max)): 70400 ng·h/mL | Cmax (400 mg, multiple oral administration, 400 mg larotinib mesylate, steady state, read-out: Cmax,ss, mean (min–max)): 845 ng/mL | half-life (400 mg, multiple oral administration, 400 mg larotinib mesylate, steady state, read-out: T1/2,ss, mean (min–max) (converted)): 87 h | Tmax (400 mg, multiple oral administration, 400 mg larotinib mesylate, steady state, read-out: Tmax,ss, median (min–max)): 6 h | Vd/F (400 mg, multiple oral administration, 400 mg larotinib mesylate, steady state, read-out: Vz/F,ss, mean (min–max)): 754 L | AUC(0-t) (400 mg, single oral administration, 400 mg larotinib mesylate, read-out: AUC0-24, mean (min–max)): 3970 ng·h/mL | AUC(0-t) (400 mg, single oral administration, 400 mg larotinib mesylate, read-out: AUC0-t, mean (min–max)): 7440 ng·h/mL | AUC(0-inf) (400 mg, single oral administration, 400 mg larotinib mesylate, read-out: AUC0-∞, mean (min–max)): 9090 ng·h/mL | Cmax (400 mg, single oral administration, 400 mg larotinib mesylate, read-out: Cmax, mean (min–max)): 354 ng/mL | half-life (400 mg, single oral administration, 400 mg larotinib mesylate, read-out: T1/2, mean (min–max) (converted)): 68.6 h | Tmax (400 mg, single oral administration, 400 mg larotinib mesylate, read-out: Tmax, median (min–max)): 5 h | Vd/F (400 mg, single oral administration, 400 mg larotinib mesylate, read-out: Vz/F, mean (min–max)): 7410 L | half-life (single oral dose, across 50–400 mg, read-out: mean t1/2): 39.3 to 68.6 h | Tmax (single oral dose, across 50–400 mg, read-out: median Tmax): 3.5 to 6 h | AUC [1]: 1220 ng·h/mL | AUC [2]: 1970 ng·h/mL | AUC [3]: 6500 ng·h/mL | AUC [4]: 10300 ng·h/mL | AUC [5]: 7260 ng·h/mL | AUC [6]: 13200 ng·h/mL | AUC [7]: 16100 ng·h/mL | CL/F,ss, mean (min–max) [1]: 10.73 (7.513–12.58) L/h | CL/F,ss, mean (min–max) [2]: 21.17 (13.80–29.53) L/h | CL/F,ss, mean (min–max) [3]: 6.512 (4.414–7.565) L/h | CL/F,ss, mean (min–max) [4]: 5.126 (4.592–6.098) L/h | CL/F,ss, mean (min–max) [5]: 13.91 (10.58–18.36) L/h | CL/F,ss, mean (min–max) [6]: 7.648 (5.819–8.842) L/h | CL/F,ss, mean (min–max) [7]: 6.087 (4.160–7.894) L/h | CL/F, mean (min–max) (single oral administration, 50 mg larotinib mesylate): 62.01 (54.17–71.3) L/h | CL/F, mean (min–max) (single oral administration, 100 mg larotinib mesylate): 73.81 (62.61–90.83) L/h | CL/F, mean (min–max) (single oral administration, 150 mg larotinib mesylate): 29.11 (18.30–38.09) L/h | CL/F, mean (min–max) (single oral administration, 220 mg larotinib mesylate): 27.79 (24.27–33.83) L/h | CL/F, mean (min–max) (single oral administration, 300 mg larotinib mesylate): 63.76 (30.15–116.4) L/h | CL/F, mean (min–max) (single oral administration, 350 mg larotinib mesylate): 55.78 (36.19–73.27) L/h | CL/F, mean (min–max) (single oral administration, 400 mg larotinib mesylate): 70.47 (29.90–145.6) L/h
